The values below come from patent US20060174366A1, “Use of ahas mutant genes as selection marker in potato transformation” (priority 2002, published 2006).

The test system of experiment [1] is Potato leaf segments of varieties Prevalent, Producent, Karnico and Desiree. Briefly: Investigation of selection pressure: lethality of Imazamox concentrations on shoot regeneration from untransformed leaf segments. Type of experiment: cell-based, Solanum tuberosum. The method, then: Potato leaf segments from in vitro propagated plants of four different potato varieties Prevalent, Producent, Karnico and Desiree were tested for natural tolerance on different concentrations of the imidazolinone herbicide Imazamox. It is important to choose a selection concentration at which the potato leaf tissue is viable long enough to regenerate shoots but have a high enough concentration to prevent the regeneration of untransformed shoots. Doses 0.1, 0.5, 1, 5, 10, 20, 30 and 50 μM Imazamox were tested.
Fully expended potato leaves are diagonally cut in 2 pieces and precultivated on MC-plates for 2 to 3 days at 23 to 24° C., see table 1.
The leaf tissues are transferred on MS300 medium for additional 2 days and cultivated under modest light at 23 to 24° C. simulating a co-cultivation step. Subsequently the leaf segments are moved to MS400 plates containing 400 mg/l Claforan. Claforan is added in order to suppress growth of Agrobacterium tumfaciens. Therefore the regeneration of shoots on different concentrations of Imazamox need to be monitored in presence of Claforan. Selection is taking place within 4 to 5 days when the explants are moved to MS400 medium supplemented with 400mg/l Claforan and Imazamox at above concentrations.
The explants are transferred to fresh selection medium every fortnight.
Leaf tissues were tested for the use of the AHAS resistance gene contained in SEQ ID No. 1 and for the selection of transgenic potato plant cells as described above. Four different potato cultivars Prevalent, Producent, Karnico and Desiree were cultivated on different concentrations of Imazamox, an imidazolinones type herbicides. It is essential to use the proper concentration for selection to yield an acceptable number of shoots per explant without high escape rate. The lethality of various Imazamox concentrations on regeneration was evaluated.
Lethal dose for regeneration was detected within 0.1 to 1 μM ranges of concentrations. Slight variation in lethality was detected between varieties. […]

Experiment [2] relates to in vitro potato leaf segments. Put plainly: Effect of Imazamox on plant cell growth in tissue culture. It counts as cell-based, Solanum tuberosum. From the text:
Leaf segments are the explants of choice used in Agrobacterium mediated potato transformation. Transgenic plants are regenerated via direct or indirect organogenesis under selective conditions. Cytokinines as growth hormones are mainly involved in provoking cell division and adventitious bud formation in in vitro potato leaf segments. […] This phenomenon classifies Imazamox as a unique selection agent that is combining both lethality for non-transgenic cells and improved growth for transgenic cells.

Each structure is given as a SMILES string.

For `COCc1cnc(C2=NC(C)(C(C)C)C(=O)N2)c(C(=O)O)c1` (racemic) [Imazamox, (RS)-2-(4-isopropyl-4-methyl-5-oxo-2-imidazolin-2-yl)-5-methoxymethylnicotinic acid], the lethality in regeneration was found to be 80% in experiment [1] (0.3 μM Imazamox) and 100% in experiment [1] (0.5 μM Imazamox). For the same compound, the Regeneration entry in experiment [1] (0.5 μM Imazamox included in the medium) is recorded as “No regeneration”. In addition, the entries for the “effect in tissue culture” value in experiment [2] (applied in low concentrations) and in experiment [2] (at higher concentrations) were “cytokinine-like effect” and “acting as an herbicide”, respectively.
